These results are taken from US10328143B2, “Hemagglutinin-binding peptide” (priority 2014, dated 2019).

The test system of the assay is influenza virus H5N1-Vac3. The class given is cell-based.

As for “Cyclo(Ac-Trp-Thr-MeGly-Asp-MePhe-MePhe-Ser-MeSer-His-Tyr-Thr-Val-Pro-Ala-Cys)-amide [iHA-100-R14A]”, the anti-viral effect entry was “high anti-viral effect” and the “anti-viral effect at low concentration” value is given as “high anti-viral effect even when their concentration is low”.

For the substance “Cyclo(Ac-Trp-Thr-MeGly-Asp-MePhe-MePhe-Ser-MeSer-His-Tyr-Thr-Val-Pro-Dap-Cys)-amide [iHA-100-R14Dap]”, the anti-viral effect entry is “high anti-viral effect” and the “anti-viral effect at low concentration” value is recorded as “high anti-viral effect even when their concentration is low”.

Consider “Cyclo(Ac-Trp-Thr-MeGly-Asp-MePhe-MePhe-Ser-MeSer-His-Tyr-Thr-Val-Pro-Glu-Cys)-amide [iHA-100-R14E]”, for which the anti-viral effect result was “high anti-viral effect”.
